# “And” between values parts separate entries of the source, which are not always exact repeats. Equal values may be shown once. Inconclusive results and toxic doses are left out.
# Tested on: BDF1 mice, intracerebral L1210 leukemia, survival T/C
# Assay: NCI In Vivo Anticancer Drug Screen. Data for tumor model L1210 Leukemia (intracerebral) in B6D2F1 (BDF1) mice
# Settings: higher = longer survival
# Outline: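 Survival measured in treated and vehicle-control tumour-bearing mice; value = T/C.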
# [1] = endpoint: mean survival time, dose: 10.0 mg/kg/injection, schedule: Q01DX009 (ip), vehicle: saline
# [2] = endpoint: mean survival time, dose: 20.0 mg/kg/injection, schedule: Q01DX009 (ip), vehicle: saline
smiles,measurement,setting,value
CC1CCC(NC(=O)N(CCCl)N=O)CC1 (centres undefined),T/C,"endpoint: mean survival time, dose: 2.0 mg/kg/injection, schedule: Q01DX001 (ip), vehicle: clinical formulation",100 % of control
same,T/C,"endpoint: mean survival time, dose: 2.0 mg/kg/injection, schedule: Q01DX009 (ip), vehicle: other",117 % of control
same,T/C,"endpoint: mean survival time, dose: 3.13 mg/kg/injection, schedule: Q01DX009 (ip), vehicle: Klucel (hydroxypropylcellulose) (HPC)",112 % of control
same,T/C,"endpoint: mean survival time, dose: 4.0 mg/kg/injection, schedule: Q01DX001 (ip), vehicle: clinical formulation",105 % of control
same,T/C,"endpoint: mean survival time, dose: 4.0 mg/kg/injection, schedule: Q01DX001 (ip), vehicle: saline",103 % of control
same,T/C,"endpoint: mean survival time, dose: 4.3 mg/kg/injection, schedule: Q01DX001 (ip), vehicle: other",104 % of control and 107 % of control
same,T/C,"endpoint: mean survival time, dose: 5.0 mg/kg/injection, schedule: Q01DX001 (ip), vehicle: other",115 % of control
same,T/C,"endpoint: mean survival time, dose: 5.0 mg/kg/injection, schedule: Q01DX009 (ip), vehicle: saline",161 % of control
same,T/C,"endpoint: mean survival time, dose: 5.4 mg/kg/injection, schedule: Q01DX001 (oral), vehicle: other",110 % of control
same,T/C,"endpoint: mean survival time, dose: 8.0 mg/kg/injection, schedule: Q01DX001 (ip), vehicle: Klucel (hydroxypropylcellulose) (HPC)",112 % of control
same,T/C,"endpoint: mean survival time, dose: 8.0 mg/kg/injection, schedule: Q01DX001 (ip), vehicle: clinical formulation",115 % of control
same,T/C,"endpoint: mean survival time, dose: 8.0 mg/kg/injection, schedule: Q01DX001 (ip), vehicle: saline",118 % of control
same,T/C,"endpoint: mean survival time, dose: 8.0 mg/kg/injection, schedule: Q01DX009 (ip), vehicle: other",183 % of control
same,T/C,"endpoint: mean survival time, dose: 9.0 mg/kg/injection, schedule: Q01DX001 (ip), vehicle: other",110 % of control and 112 % of control
same,T/C,[1],151 % of control
same,T/C,"endpoint: mean survival time, dose: 12.5 mg/kg/injection, schedule: Q01DX009 (ip), vehicle: Klucel (hydroxypropylcellulose) (HPC)",161 % of control
same,T/C,"endpoint: mean survival time, dose: 16.0 mg/kg/injection, schedule: Q01DX001 (ip), vehicle: saline",153 % of control
same,T/C,"endpoint: mean survival time, dose: 16.0 mg/kg/injection, schedule: Q01DX009 (ip), vehicle: other",113 % of control
same,T/C,"endpoint: mean survival time, dose: 20.0 mg/kg/injection, schedule: Q01DX001 (ip), vehicle: other",188 % of control
same,T/C,[2],98 % of control
same,T/C,"endpoint: mean survival time, dose: 24.0 mg/kg/injection, schedule: Q01DX001 (ip), vehicle: other",175 % of control and 185 % of control
same,T/C,"endpoint: mean survival time, dose: 25.0 mg/kg/injection, schedule: Q01DX009 (ip), vehicle: Klucel (hydroxypropylcellulose) (HPC)",109 % of control
same,T/C,"endpoint: mean survival time, dose: 30.0 mg/kg/injection, schedule: Q01DX001 (ip), vehicle: other",187 % of control and 198 % of control
same,T/C,"endpoint: mean survival time, dose: 32.0 mg/kg/injection, schedule: Q01DX001 (ip), vehicle: clinical formulation",160 % of control
same,T/C,"endpoint: mean survival time, dose: 32.0 mg/kg/injection, schedule: Q01DX001 (oral), vehicle: clinical formulation",102 % of control
same,T/C,"endpoint: mean survival time, dose: 36.0 mg/kg/injection, schedule: Q01DX001 (oral), vehicle: other",238 % of control and 243 % of control and 292 % of control
same,T/C,"endpoint: mean survival time, dose: 40.0 mg/kg/injection, schedule: Q01DX001 (ip), vehicle: other",280 % of control
same,T/C,"endpoint: mean survival time, dose: 45.0 mg/kg/injection, schedule: Q01DX001 (ip), vehicle: other",225 % of control and 251 % of control
same,T/C,"endpoint: mean survival time, dose: 45.0 mg/kg/injection, schedule: Q01DX001 (oral), vehicle: other",306 % of control and 362 % of control
same,T/C,"endpoint: mean survival time, dose: 54.0 mg/kg/injection, schedule: Q01DX001 (oral), vehicle: other",189 % of control and 248 % of control and 357 % of control
same,T/C,"endpoint: mean survival time, dose: 67.0 mg/kg/injection, schedule: Q01DX001 (ip), vehicle: other",168 % of control
same,T/C,"endpoint: mean survival time, dose: 72.0 mg/kg/injection, schedule: Q01DX001 (ip), vehicle: other",209 % of control and 306 % of control
same,T/C,"endpoint: mean survival time, dose: 90.0 mg/kg/injection, schedule: Q01DX001 (oral), vehicle: other",91 % of control
same,T/C,"endpoint: mean survival time, dose: 91.0 mg/kg/injection, schedule: Q01DX001 (oral), vehicle: other",114 % of control
same,T/C,"endpoint: mean survival time, dose: 128.0 mg/kg/injection, schedule: Q01DX001 (ip), vehicle: Klucel (hydroxypropylcellulose) (HPC)",109 % of control
same,T/C,"endpoint: mean survival time, dose: 128.0 mg/kg/injection, schedule: Q01DX001 (ip), vehicle: clinical formulation",103 % of control
same,T/C,"endpoint: mean survival time, dose: 128.0 mg/kg/injection, schedule: Q01DX001 (ip), vehicle: saline",103 % of control
same,T/C,"endpoint: mean survival time, dose: 256.0 mg/kg/injection, schedule: Q01DX001 (ip), vehicle: Klucel (hydroxypropylcellulose) (HPC)",111 % of control
same,T/C,"endpoint: mean survival time, dose: 256.0 mg/kg/injection, schedule: Q01DX001 (oral), vehicle: clinical formulation",112 % of control
same,T/C,"endpoint: median survival time, dose: 2.0 mg/kg/injection, schedule: Q01DX001 (ip), vehicle: clinical formulation",106 % of control
same,T/C,"endpoint: median survival time, dose: 2.0 mg/kg/injection, schedule: Q01DX001 (ip), vehicle: saline",106 % of control
same,T/C,"endpoint: median survival time, dose: 4.0 mg/kg/injection, schedule: Q01DX001 (ip), vehicle: clinical formulation",113 % of control
same,T/C,"endpoint: median survival time, dose: 4.0 mg/kg/injection, schedule: Q01DX001 (ip), vehicle: saline",115 % of control
same,T/C,"endpoint: median survival time, dose: 8.0 mg/kg/injection, schedule: Q01DX001 (ip), vehicle: clinical formulation",122 % of control
same,T/C,"endpoint: median survival time, dose: 16.0 mg/kg/injection, schedule: Q01DX001 (ip), vehicle: saline",178 % of control
same,T/C,"endpoint: median survival time, dose: 32.0 mg/kg/injection, schedule: Q01DX001 (ip), vehicle: clinical formulation",175 % of control
same,T/C,"endpoint: median survival time, dose: 32.0 mg/kg/injection, schedule: Q01DX001 (ip), vehicle: saline",159 % of control
same,T/C,"endpoint: median survival time, dose: 32.0 mg/kg/injection, schedule: Q01DX001 (oral), vehicle: clinical formulation",108 % of control
same,T/C,"endpoint: median survival time, dose: 64.0 mg/kg/injection, schedule: Q01DX001 (oral), vehicle: clinical formulation",150 % of control
same,T/C,"endpoint: median survival time, dose: 128.0 mg/kg/injection, schedule: Q01DX001 (ip), vehicle: clinical formulation",110 % of control
same,T/C,"endpoint: median survival time, dose: 128.0 mg/kg/injection, schedule: Q01DX001 (ip), vehicle: saline",117 % of control
same,T/C,"endpoint: median survival time, dose: 256.0 mg/kg/injection, schedule: Q01DX001 (ip), vehicle: clinical formulation",103 % of control
same,T/C,"endpoint: median survival time, dose: 256.0 mg/kg/injection, schedule: Q01DX001 (ip), vehicle: saline",102 % of control
same,T/C,"endpoint: median survival time, dose: 256.0 mg/kg/injection, schedule: Q01DX001 (oral), vehicle: clinical formulation",118 % of control
same,T/C,"endpoint: median survival time, dose: 512.0 mg/kg/injection, schedule: Q01DX001 (oral), vehicle: clinical formulation",98 % of control
same,T/C,"endpoint: median survival time, dose: 1024.0 mg/kg/injection, schedule: Q01DX001 (oral), vehicle: clinical formulation",83 % of control
CC(=O)Nc1ccc2nc3ccc(NC(C)=O)cc3[n+](-c3ccccc3)c2c1,T/C,"endpoint: mean survival time, dose: 37.5 mg/kg/injection, schedule: Q01DX Z (ip), vehicle: carboxymethylcellulose (CMC)",104 % of control
same,T/C,"endpoint: mean survival time, dose: 50.0 mg/kg/injection, schedule: Q01DX Z (ip), vehicle: carboxymethylcellulose (CMC)",98 % of control
same,T/C,"endpoint: mean survival time, dose: 75.0 mg/kg/injection, schedule: Q01DX Z (ip), vehicle: carboxymethylcellulose (CMC)",103 % of control
same,T/C,"endpoint: mean survival time, dose: 100.0 mg/kg/injection, schedule: Q01DX Z (ip), vehicle: carboxymethylcellulose (CMC)",101 % of control
same,T/C,"endpoint: mean survival time, dose: 125.0 mg/kg/injection, schedule: Q01DX Z (ip), vehicle: carboxymethylcellulose (CMC)",107 % of control
same,T/C,"endpoint: mean survival time, dose: 250.0 mg/kg/injection, schedule: Q01DX Z (ip), vehicle: carboxymethylcellulose (CMC)",97 % of control
CC(C)(C)C1CCCC(NC(=O)N(CCCl)N=O)C1 (centres undefined),T/C,"endpoint: mean survival time, dose: 187.0 mg/kg/injection, schedule: Q01DX001 (ip), vehicle: saline with Tween-80",169 % of control
Cc1cccc2c(Nc3ccc(NS(C)(=O)=O)cc3)c3ccc([N+](=O)[O-])cc3nc12,T/C,[1],114 % of control
same,T/C,"endpoint: mean survival time, dose: 10.0 mg/kg/injection, schedule: Q01DX009 (sc), vehicle: saline",104 % of control
same,T/C,[2],94 % of control
same,T/C,"endpoint: mean survival time, dose: 20.0 mg/kg/injection, schedule: Q01DX009 (sc), vehicle: saline",101 % of control
same,T/C,"endpoint: mean survival time, dose: 40.0 mg/kg/injection, schedule: Q01DX009 (sc), vehicle: saline",96 % of control
CN(Cc1cnc2nc(N[Si](C)(C)C)nc(N[Si](C)(C)C)c2n1)c1ccc(C(=O)NC(CCC(=O)O[Si](C)(C)C)C(=O)O[Si](C)(C)C)cc1 (centres undefined),T/C,"endpoint: mean survival time, dose: 1.0 mg/kg/injection, schedule: Q01DX009 (ip), vehicle: Klucel (hydroxypropylcellulose) (HPC)",118 % of control
same,T/C,"endpoint: mean survival time, dose: 2.0 mg/kg/injection, schedule: Q01DX009 (ip), vehicle: saline",173 % of control
same,T/C,"endpoint: mean survival time, dose: 4.0 mg/kg/injection, schedule: Q01DX009 (ip), vehicle: Klucel (hydroxypropylcellulose) (HPC)",110 % of control
same,T/C,"endpoint: mean survival time, dose: 4.0 mg/kg/injection, schedule: Q01DX009 (ip), vehicle: saline",93 % of control
CN(C)N=Nc1ccc(C(N)=O)cc1,T/C,"endpoint: median survival time, dose: 10.0 mg/kg/injection, schedule: Q01DX009 (ip), vehicle: saline with Tween-80",98 % of control
same,T/C,"endpoint: median survival time, dose: 20.0 mg/kg/injection, schedule: Q01DX009 (ip), vehicle: saline with Tween-80",107 % of control
same,T/C,"endpoint: median survival time, dose: 40.0 mg/kg/injection, schedule: Q01DX009 (ip), vehicle: saline with Tween-80",109 % of control
COC12C(COC(N)=O)C3=C(C(=O)C(C)=C(N)C3=O)N1CC1C2N1C (centres undefined),T/C,"endpoint: mean survival time, dose: 11.0 mg/kg/injection, schedule: Q01DX001 (ip), vehicle: carboxymethylcellulose (CMC)",92 % of control
same,T/C,"endpoint: mean survival time, dose: 17.0 mg/kg/injection, schedule: Q01DX001 (ip), vehicle: carboxymethylcellulose (CMC)",98 % of control
same,T/C,"endpoint: mean survival time, dose: 26.0 mg/kg/injection, schedule: Q01DX001 (ip), vehicle: carboxymethylcellulose (CMC)",97 % of control
C[C@H]1CN1C1=CC(=O)C(N2C[C@@H]2C)=CC1=O,T/C,"endpoint: mean survival time, dose: 8.0 mg/kg/injection, schedule: Q01DX009 (ip), vehicle: saline",90 % of control

# Reference: PubChem BioAssay AID252 (DTP/NCI, 2004)
